From patent publication US20240299378A1, “EMULSION FOR USE IN THE TREATMENT OF ROSACEA” (EXINOV, priority 2021, published 2024)

Test system: cell proliferation in the local lymph nodes
Assay: mouse Local Lymph Node Assay (LLNA), 3HTdR incorporation
Conditions: topical on ears days 1-3; Em-A 100% (w/v) in AOO; HCA 25% (w/v) in AOO
Excerpt: Preliminary tests: Based on the results of the Preliminary Compatibility Test, the tested emulsions characteristics (e.g., when the emulsion is a dense cream), its use and following the Organisation for Economic Co-operation and Development (OECD) Guidelines, the best vehicle for the tested emulsions was considered as AOO (acetone:olive oil 4:1 (v/v) mixture). The tested emulsions at 100% (w/v) were suitable for the test using AOO as vehicle. […] Based on the observations recorded in this test, the 100% (w/v) in AOO dose was selected as top dose for the main test. […] Tested emulsions were applied on the dorsal surface of ears of experimental animals (25 μL/ear using positive displacement pipette) for three consecutive days (days 1, 2 and 3). There was no treatment on days 4, 5 and 6. The cell proliferation in the local lymph nodes was assessed by measuring the incorporation of tritiated methyl thymidine (3HTdR) and the values obtained were used to calculate stimulation indices (SI) in comparison with the control group.

## CCCCCCC(C=O)=Cc1ccccc1 [HCA, α-hexylcinnamaldehyde]
  stimulation index (SI): 12.7
